molecular target: T1, factor VIIa/tissue factor (Homo sapiens, UniProt P08709); test: Factor VIIa (FVIIa) chromogenic assay; format: biochemical; conditions: human factor VIIa 5 nM and TF 10 nM; chromogenic substrate S-2288 500 μM; 25° C.; 15 minute preincubation; pH 8.15
T1 construct: human factor VIIa and TF
Procedure: The ability of the compounds of the formula I to inhibit factor VIIa or other enzymes like factor Xa, thrombin, plasmin, or trypsin can be assessed by determining the concentration of the compound of the formula I that inhibits enzyme activity by 50%, i.e. the IC50 value, which is related to the inhibition constant Ki. Purified enzymes are used in chromogenic assays. The concentration of inhibitor that causes a 50% decrease in the rate of substrate hydrolysis is determined by linear regression after plotting the relative rates of hydrolysis (compared to the uninhibited control) versus the log of the concentration of the compound of formula I. For calculating the inhibition constant Ki, the IC50 value is corrected for competition with substrate using the formula
Ki=IC50/{1+(substrate concentration/Km)}
wherein Km is the Michaelis-Menten constant (Chen and Prusoff, Biochem. Pharmacol. 22 (1973), 3099-3108; I. H. Segal, Enzyme Kinetics, 1975, John Wiley & Sons, New York, 100-125; which are incorporated herein by reference).
a) Factor VIIa (FVIIa) Assay
The inhibitory activity (expressed as inhibition constant Ki(FVIIa)) of the compounds of formula I towards factor VIIa/tissue factor activity was determined using a chromogenic assay essentially as described previously (J. A. Ostrem et al., Biochemistry 37 (1998) 1053-1059 which is incorporated herein by reference). Kinetic assays were conducted at 25° C. in half-area microtiter plates (Costar Corp., Cambridge, Mass.) using a kinetic plate reader (Molecular Devices Spectramax 250). A typical assay consisted of 25 μl human factor VIIa and TF (5 nM and 10 nM, respective final concentration) combined with 40 μl of inhibitor dilutions in 10% DMSO/TBS-PEG buffer (50 mM Tris, 15 mM NaCl, 5 mM CaCl2, 0.05% PEG 8000, pH 8.15). Following a 15 minute preincubation period, the assay was initiated by the addition of 35 μl of the chromogenic substrate S-2288 (D-Ile-Pro-Arg-p-nitroanilide, Pharmacia Hepar Inc., 500 μM final concentration).

T1 sequence (P08709 213-466 limits assumed): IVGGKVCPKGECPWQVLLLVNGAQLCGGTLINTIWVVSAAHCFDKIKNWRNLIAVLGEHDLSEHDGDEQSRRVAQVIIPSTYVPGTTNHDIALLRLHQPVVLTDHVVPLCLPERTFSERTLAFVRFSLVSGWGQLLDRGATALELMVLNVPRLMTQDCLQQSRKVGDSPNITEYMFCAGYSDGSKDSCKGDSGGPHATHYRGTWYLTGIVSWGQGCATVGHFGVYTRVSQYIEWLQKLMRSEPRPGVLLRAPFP
T1 sequence (P08709 61-212 limits assumed): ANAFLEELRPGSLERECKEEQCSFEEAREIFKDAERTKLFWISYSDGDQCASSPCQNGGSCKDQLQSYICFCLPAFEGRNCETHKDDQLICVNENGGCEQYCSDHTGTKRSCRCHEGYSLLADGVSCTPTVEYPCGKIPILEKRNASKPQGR
T1 sequence (P13726 33-295 partner): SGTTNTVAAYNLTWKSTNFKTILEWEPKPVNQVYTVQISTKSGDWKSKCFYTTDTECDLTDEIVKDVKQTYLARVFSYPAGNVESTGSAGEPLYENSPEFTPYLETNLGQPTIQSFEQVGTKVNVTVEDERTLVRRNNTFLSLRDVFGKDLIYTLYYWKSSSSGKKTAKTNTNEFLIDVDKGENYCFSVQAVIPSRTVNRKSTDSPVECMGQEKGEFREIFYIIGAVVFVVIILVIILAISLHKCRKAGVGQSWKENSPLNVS

In order of rising Ki:
1. CC(Nc1ccccc1NC(=O)Nc1ccc(C(=N)N)cc1)c1ccc(C(=O)Nc2cccc(S(C)(=O)=O)c2)cc1 (stereo not drawn) [Example 19]  51 nM
2. CC(Nc1ccccc1NC(=O)Nc1ccc(C(=N)N)cc1)c1ccc(C(=O)NC2CCCCC2)cc1 (stereo not drawn) [Example 37]  56 nM
3. CC(Nc1ccccc1NC(=O)Nc1ccc(C(=N)N)cc1)c1ccc(C(=O)NCc2ccc(S(C)(=O)=O)cc2)cc1 (stereo not drawn) [Example 24]  98 nM
4. C[C@@H](Nc1ccccc1NC(=O)Nc1ccc(C(=N)N)cc1)c1ccccc1 [Example 15]  103 nM
5. CC(Nc1ccccc1NC(=O)Nc1ccc(C(=N)N)cc1)c1ccc(C(=O)N2CCOCC2)cc1 (stereo not drawn) [Example 5, 4-[3-(2-{1-[4-(morpholine-4-carbonyl)-phenyl]-ethylamino}-phenyl)-ureido]-benzamidine acetate]  188 nM
6. CC(Nc1ccccc1NC(=O)Nc1ccc(C(=N)N)cc1)c1ccc(C(=O)Nc2csc(-c3ccccc3)c2)cc1 (stereo not drawn) [Example 30]  282 nM
7. CC(Nc1ccccc1NC(=O)Nc1ccc(C(=N)N)cc1)c1ccccc1 (stereo not drawn) [Example 2, 4-{3-[2-(1-Phenyl-ethylamino)-phenyl]-ureido}-benzamidin]  700 nM
8. CC(Nc1ccccc1NC(=O)Nc1ccc(C(=N)N)cc1)c1ccc(C(=O)Nc2ccc(C(F)(F)F)cc2)cc1 (stereo not drawn) [Example 39]  935 nM
9. CC(Nc1ccccc1CNC(=O)Nc1ccc(C(=N)N)cc1)c1cccc(C(F)(F)F)c1 (stereo not drawn) [Example 18]  44400 nM

Source: patent US6706715B2, “Urea derivatives with antiproteolytic activity” (Aventis Pharma Deutschland GmbH, priority 2001, dated 2004)
